According to patent publication US8648201B2, “Aminopyridine derivatives for treating tumors and inflammatory diseases” (MERCK PATENT GmbH, priority 2009, dated 2014):

Tests used:
PDK1 [1] = target: T1, PDK1 (Homo sapiens, UniProt O15530); experiment: IC50 PDK1 (cell); type: cell-based
T1 construct: endogenous in cells; host or cells: commercially available colon carcinoma, ovary, prostate or breast cell lines (none named)
T1 sequence (O15530 1-556): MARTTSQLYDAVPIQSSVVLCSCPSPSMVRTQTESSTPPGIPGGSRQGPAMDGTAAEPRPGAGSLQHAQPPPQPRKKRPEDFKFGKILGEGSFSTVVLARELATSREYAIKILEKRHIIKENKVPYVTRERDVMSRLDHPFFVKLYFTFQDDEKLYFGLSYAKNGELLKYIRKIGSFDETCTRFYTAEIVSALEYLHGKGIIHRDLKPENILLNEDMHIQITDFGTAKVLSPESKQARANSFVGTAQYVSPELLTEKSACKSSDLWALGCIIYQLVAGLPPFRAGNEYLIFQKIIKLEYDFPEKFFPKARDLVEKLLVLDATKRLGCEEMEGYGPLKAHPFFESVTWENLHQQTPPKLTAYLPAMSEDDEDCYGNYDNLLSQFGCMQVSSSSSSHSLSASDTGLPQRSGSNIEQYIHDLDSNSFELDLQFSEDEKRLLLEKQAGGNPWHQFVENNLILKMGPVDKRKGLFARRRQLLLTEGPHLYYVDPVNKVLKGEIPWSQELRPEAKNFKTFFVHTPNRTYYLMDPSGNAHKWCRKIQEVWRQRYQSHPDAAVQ
Experimental: The cells are sown in a suitable cell density in microtitre plates (96-well format) and the test substances are added in the form of a concentration series. After four further days of cultivation in serum-containing medium, the tumour cell proliferation/tumour cell vitality can be determined by means of an Alamar Blue test system. A defined number of cells (for example 2000 cells) per culture/well in a volume of 180 μl of culture medium are sown in microtitre plates (96 well cell-culture plates) using a multichannel pipette. The cells are subsequently cultivated in a CO2 incubator (37° C. and 10% CO2). The test substances are dissolved, for example, in DMSO and subsequently employed in corresponding concentration (if desired in a dilution series) in the cell culture medium. The dilution steps can be adapted depending on the efficiency of the active ingredients and the desired spread of the concentrations. Cell culture medium is added to the test substances in corresponding concentrations. The addition of the test substances to the cells can take place on the same day as the sowing of the cells. To this end, in each case 20 μl of substance solution from the predilution plate are added to the cultures/wells. The cells are cultivated for a further 4 days at 37° Celsius and 10% CO2. In each case, 20 μl of Alamar Blue reagent are added per well, and the microtitre plates are incubated, for example, for a further seven hours in a CO2 incubator (at 37° C. and 10% CO2). The plates are measured in a reader with a fluorescence filter at a wavelength of 540 nm. The plates can be shaken gently immediately before the measurement. The absorbance value of the medium control (no cells and test substances used) is subtracted from all other absorbance values. The controls (cells without test substance) are set equal to 100 percent, and all other absorbance values are set in relation thereto (for example in % of control): Calculation: 100*(value with cells and test substance−value of medium control)/(value with cells−value of medium control) IC50 values (50% inhibition) are determined with the aid of statistics programs, such as, for example, RS1.

PDK1 [2] = target: T2, PDK1 (Homo sapiens, UniProt O15530); experiment: Test for the inhibition of PDK1 (flashplate, 33P-ATP); type: biochemical; conditions: enzyme
T2 construct: His6 (N)
T2 sequence (O15530 51-556 limits assumed): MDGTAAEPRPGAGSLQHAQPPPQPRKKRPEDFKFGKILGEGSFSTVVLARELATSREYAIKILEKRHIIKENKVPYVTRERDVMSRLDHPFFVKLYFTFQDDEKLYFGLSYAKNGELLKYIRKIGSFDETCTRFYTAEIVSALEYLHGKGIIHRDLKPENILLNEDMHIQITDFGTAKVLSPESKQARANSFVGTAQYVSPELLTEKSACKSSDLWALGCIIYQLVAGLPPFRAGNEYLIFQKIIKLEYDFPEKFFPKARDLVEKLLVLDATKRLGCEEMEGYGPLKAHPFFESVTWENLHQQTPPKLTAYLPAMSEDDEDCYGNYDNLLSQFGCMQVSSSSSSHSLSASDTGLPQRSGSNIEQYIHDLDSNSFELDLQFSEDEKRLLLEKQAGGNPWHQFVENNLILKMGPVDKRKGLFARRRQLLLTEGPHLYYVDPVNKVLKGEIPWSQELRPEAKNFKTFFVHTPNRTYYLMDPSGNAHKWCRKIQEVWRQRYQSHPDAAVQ
Experimental: The experimental batches are carried out in a flashplate system with 384 wells/microtitration plate.
In each case, the PDK1 sample His6-PDK1(1-50)(3.4 nM), the PDK1 substrate biotin-bA-bA-[…] (400 nM), 4 μM ATP (with 0.2 μCi of ^33P-ATP/well) and the test substance in 50 μl of conventional experimental solution per well are incubated at 30° C. for 60 min. The test substances are employed in corresponding concentrations (if desired in a dilution series). The control is carried out without test substance. The reaction is stopped using standard methods and washed. The activity of the kinase is measured via the incorporated radioactivity in top count. In order to determine the non-specific kinase reaction (blank value), the experimental batches are carried out in the presence of 100 nM staurosporin.
The radioactivity (decompositions per minute) of the blank value (no use of test substance in the presence of staurosporin) is subtracted from all other radioactivity values. The controls (kinase activity without test substance) are set equal to 100 percent and all other radioactivity values (after subtracting the blank value) are expressed set in relation thereto (for example in % of the control).
IC50 values (50% inhibition) are determined with the aid of statistics programmes, such as, for example, RS1.

IRAK-1 = target: T3, IRAK-1 (Homo sapiens, UniProt P51617); experiment: Test for the inhibition of IRAK1 (autophosphorylation, flashplate); type: biochemical; conditions: enzyme
T3 construct: His6 (N); Dr.Jaekel Pool B, 232Y08C1.IRK
T3 sequence (P51617 whole entry, species assumed): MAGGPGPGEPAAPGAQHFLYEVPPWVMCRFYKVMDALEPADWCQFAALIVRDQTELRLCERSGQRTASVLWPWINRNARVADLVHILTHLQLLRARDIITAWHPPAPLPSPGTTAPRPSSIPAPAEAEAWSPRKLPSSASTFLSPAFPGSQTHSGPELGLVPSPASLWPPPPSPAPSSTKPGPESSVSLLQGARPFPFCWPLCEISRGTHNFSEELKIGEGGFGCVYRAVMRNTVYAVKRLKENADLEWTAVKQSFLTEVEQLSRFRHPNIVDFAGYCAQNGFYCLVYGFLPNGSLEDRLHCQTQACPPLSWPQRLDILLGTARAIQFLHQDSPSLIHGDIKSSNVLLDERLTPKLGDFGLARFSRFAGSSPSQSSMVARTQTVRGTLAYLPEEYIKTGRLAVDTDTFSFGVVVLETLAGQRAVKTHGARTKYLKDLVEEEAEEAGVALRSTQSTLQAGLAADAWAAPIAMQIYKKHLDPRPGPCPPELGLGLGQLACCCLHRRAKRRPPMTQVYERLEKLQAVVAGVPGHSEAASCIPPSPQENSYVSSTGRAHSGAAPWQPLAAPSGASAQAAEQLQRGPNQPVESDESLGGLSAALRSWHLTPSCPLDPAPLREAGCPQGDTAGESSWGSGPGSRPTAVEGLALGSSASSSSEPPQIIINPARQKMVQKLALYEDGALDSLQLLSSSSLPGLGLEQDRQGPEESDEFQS
Experimental: (§1) The experimental batches are carried out in a flashplate system with 384 wells/microtitre plate. In each case, in order to investigate the inhibition of the autophosphorylation activity of IRAK1, the IRAK1 sample His6-IRAK1 (5.1 nM), 1 μM ATP (with 0.25 μCi of ^33P-ATP/well) and the test substance in 50 μl of conventional experimental solution per well are incubated at 22° C. for 180 min. The test substances are employed in corresponding concentrations (if desired in a dilution series). The control is carried out without test substance. The reaction is stopped using standard methods and washed. The activity of the kinase is measured via the incorporated radioactivity in top count. In order to determine the non-specific kinase reaction (blank value), the experimental batches are carried out in the presence of 1 μM staurosporin. The radioactivity (decompositions per minute) of the blank value (no use of test substance in the presence of 1 μM staurosporin) is subtracted from all other radioactivity values. The controls (kinase activity without test substance) are set equal to 100 percent and all other radioactivity values (after subtracting the blank value) are expressed set in relation thereto (for example in % of the control). IC50 values (50% inhibition) are determined with the aid of statistics programs, such as, for example, RS1.

IRAK-4 = target: T4, IRAK-4 (Homo sapiens, UniProt Q9NWZ3); experiment: Test for the inhibition of IRAK4 (flashplate, 33P-ATP); type: biochemical; conditions: enzyme
T4 construct: His6 (N); Dr.Jaekel
T4 sequence (Q9NWZ3 1-460): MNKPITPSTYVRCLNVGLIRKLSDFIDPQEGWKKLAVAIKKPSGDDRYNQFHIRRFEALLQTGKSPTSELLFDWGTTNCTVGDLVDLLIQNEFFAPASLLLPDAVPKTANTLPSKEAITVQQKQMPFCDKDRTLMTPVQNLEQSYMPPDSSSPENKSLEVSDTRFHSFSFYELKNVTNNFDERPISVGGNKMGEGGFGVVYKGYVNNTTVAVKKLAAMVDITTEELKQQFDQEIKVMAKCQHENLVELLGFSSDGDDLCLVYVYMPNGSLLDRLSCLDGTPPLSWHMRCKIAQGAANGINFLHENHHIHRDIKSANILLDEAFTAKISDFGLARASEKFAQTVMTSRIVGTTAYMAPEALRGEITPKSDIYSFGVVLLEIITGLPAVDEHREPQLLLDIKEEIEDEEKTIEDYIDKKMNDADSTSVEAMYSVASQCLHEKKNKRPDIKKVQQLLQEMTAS
Experimental: as §1, with “case,” for “case, in order to investigate”, “the IRAK4 sample His6-IRAK4 (7.3 nM),” for “the inhibition of”, “the biotinylated substrate peptide STK substrate 1-biotin (Cisbio Bioassays, France) (300” for “the autophosphorylation activity of IRAK1, the IRAK1 sample His6-IRAK1 (5.1”, “nM), 10” for “nM), 1”

| IC50 (PDK1 [1]) | IC50 (PDK1 [2]) | IC50 (IRAK-1) | IC50 (IRAK-4) | SMILES |
| --- | --- | --- | --- | --- |
| 0.1 to 10 µM | 1 to 100 nM |  |  | C[C@@H]1CC(=O)NN=C1c1ccc2nc(-c3cc(-c4cnn(C)c4)cnc3N)[nH]c2c1 (single isomer, unassigned) [Compound A2] |
| > 10 µM | 1 to 100 nM |  |  | C[C@H]1CC(=O)NN=C1c1ccc2nc(-c3cc(-c4cnn(C)c4)cnc3N)[nH]c2c1 (single isomer, unassigned) [Compound A3] |
| 0.1 to 10 µM | 1 to 100 nM |  |  | CCC1CC(=O)NN=C1c1ccc2[nH]c(-c3cc(-c4cnn(C)c4)cnc3N)nc2c1 (stereo not drawn) [Compound A4, 6-{2-[2-Amino-5-(1-methyl-1H-pyrazol-4-yl)-pyridin-3-yl]-1H-benzimidazol-5-yl}-5-ethyl-4,5-dihydro-2H-pyridazin-3-one] |
| 0.1 to 10 µM | 1 to 100 nM |  |  | CC1CC(=O)NN=C1c1ccc2[nH]c(-c3cc(-c4cnn(CCN5CCOCC5)c4)cnc3N)nc2c1 (stereo not drawn) [Compound A9, 6-(2-{2-amino-5-[1-(2-morpholin-4-ylethyl)-1H-pyrazol-4-yl]-pyridin-3-yl}-1H-benzimidazol-5-yl)-5-methyl-4,5-dihydro-2H-pyridazin-3-one] |
| 0.1 to 10 µM | 1 to 100 nM |  |  | CC1CC(=O)NN=C1c1ccc2[nH]c(-c3cc(-c4cnn(C(C)C)c4)cnc3N)nc2c1 (stereo not drawn) [Compound A11, 6-{2-[2-Amino-5-(1-isopropyl-1H-pyrazol-4-yl)pyridin-3-yl]-1H-benzimidazol-5-yl}-5-methyl-4,5-dihydro-2H-pyridazin-3-one] |
| 0.1 to 10 µM | 1 to 100 nM |  |  | COCCn1cc(-c2cnc(N)c(-c3nc4cc(C5=NNC(=O)CC5C)ccc4[nH]3)c2)cn1 (stereo not drawn) [Compound A12] |
| 0.1 to 10 µM | 1 to 100 nM |  |  | COCCCn1cc(-c2cnc(N)c(-c3nc4cc(C5=NNC(=O)CC5C)ccc4[nH]3)c2)cn1 (stereo not drawn) [Compound A13, 6-(2-{2-Amino-5-[1-(3-methoxypropyl)-1H-pyrazol-4-yl]-pyridin-3-yl}-1H-benzimidazol-5-yl)-5-methyl-4,5-dihydro-2H-pyridazin-3-one] |
| > 10 µM | 1 to 100 nM |  |  | CC1CC(=O)NN=C1c1ccc2[nH]c(-c3cc(-c4cnn(CCN(C)C)c4)cnc3N)nc2c1 (stereo not drawn) [Compound A15, 6-(2-{2-Amino-5-[1-(2-dimethylaminoethyl)-1H-pyrazol-4-yl]pyridin-3-yl}-1H-benzimidazol-5-yl)-5-methyl-4,5-dihydro-2H-pyridazin-3-one] |
|  | 1 to 100 nM | 1 to 100 nM | 1 to 100 nM | COc1cc2[nH]c(-c3cc(-c4cnn(C5CCNCC5)c4)cnc3N)nc2cc1F [Compound A69] |
|  | 1 to 100 nM | 100 to 10000 nM | 100 to 10000 nM | Cn1cc(-c2cnc(N)c(-c3nc4ccc(F)cc4[nH]3)c2)cn1 [Compound A74] |
|  | 1 to 100 nM | 1 to 100 nM | 100 to 10000 nM | COc1cc2nc(-c3cc(-c4cnn(C)c4)cnc3N)[nH]c2cc1F [Compound A78] |
|  | 1 to 100 nM | 100 to 10000 nM | 100 to 10000 nM | Cc1cccc2nc(-c3cc(-c4cnn(C5CCNCC5)c4)cnc3N)[nH]c12 [Compound A89, 3-(7-Methyl-1H-benzimidazol-2-yl)-5-(1-piperidin-4-yl-1H-pyrazol-4-yl)pyridin-2-ylamine] |
|  |  | 1 to 100 nM | 1 to 100 nM | COCCNC(=O)c1ccc(-c2cnc(N)c(-c3nc4ccc(OC)cc4[nH]3)c2)s1 [Compound A130, N-(2-methoxyethyl)-5-[6-amino-5-(6-methoxy-1H-benzimidazol-2-yl)pyridin-3-yl]thiophene-2-carboxamide] |
|  | 100 to 10000 nM | 100 to 10000 nM | 1 to 100 nM | COc1cc2[nH]c(-c3cc(-c4cnn(CCN5CCOCC5)c4)cnc3N)nc2cc1F [Compound A148, 3-(5-Fluoro-6-methoxy-1H-benzimidazol-2-yl)-5-[1-(2-morpholin-4-ylethyl)-1H-pyrazol-4-yl]pyridin-2-ylamine] |
